Source: patent publication US20220279826A1, “OFF-FLAVOR SUPPRESSING AGENT” (AJINOMOTO CO., INC., priority 2019, published 2022)

What was measured:
[1] = Sensory evaluation in 0.007 wt % sucralose aqueous solution (Experimental Example 11); settings: Table 25
Experimental: (§1) Each compound shown in the following Table 25 was added to a 0.007 wt % sucralose aqueous solution (an aqueous solution prepared by dissolving sucralose (0.007 parts by weight) in water (99.993 parts by weight)) so as to achieve the concentration (addition concentration) shown in the following Table 25 to prepare each evaluation sample.
(§2) Based on the following evaluation criteria, a panel of three experts determined by consensus the intensity of off-tastes (bitter taste, harsh taste, metallic taste) derived from sucralose in each evaluation sample, by comparison with a 0.007 wt % sucralose aqueous solution without addition of any compound (negative control).

[2] = Sensory evaluation in 1 wt % methyl cellulose aqueous solution (Experimental Example 20); settings: Table 35
Experimental: Each compound shown in the following Table 35 was added to a 1 wt % methyl cellulose aqueous solution (aqueous solution prepared by dissolving methyl cellulose (1 part by weight) in water (99 parts by weight)) so as to achieve the concentration (addition concentration) shown in the following Table 35 to prepare each evaluation sample. Here, the methyl cellulose manufactured by Unitec Foods Co., Ltd. was used.
as §2, with “four” for “three”, “astringent” for “metallic”, “methyl cellulose” for “sucralose”, “1” for “0.007”

[3] = Sensory evaluation in pea protein aqueous solution (Experimental Example 8); settings: text summary of Table 22
Experimental: (§3) Each compound shown in the following Table 22 was added to an aqueous solution prepared by dissolving powdered pea protein (6 parts by weight) and granulated sugar (4 parts by weight) in ion exchange water (90 parts by weight) (hereinafter at times referred to as pea protein aqueous solution) so as to achieve the concentration (addition concentration) shown in the following Table 22 to prepare each evaluation sample. Here, the powdered pea protein manufactured by Cosucra was used.
as §2, with “four” for “three”, “astringent” for “metallic”, “pea protein” for “sucralose”, “pea protein” for “0.007 wt % sucralose”

[4] = Sensory evaluation in granular pea protein (Experimental Example 15); settings: Table 29
Experimental: Each compound shown in the following Table 29 was added to granular pea protein (manufactured by Roquette) so as to achieve the concentration (addition concentration) shown in the following Table 29 to prepare each evaluation sample.
as §2, with “four” for “three”, “astringent” for “metallic”, “pea protein” for “sucralose”, “granular pea protein” for “a 0.007 wt % sucralose aqueous solution”

[5] = Sensory evaluation in granular fava bean protein (Experimental Example 16); settings: Table 30
Experimental: Each compound shown in the following Table 30 was added to granular fava bean protein (manufactured by Schouten) so as to achieve the concentration (addition concentration) shown in the following Table 30 to prepare each evaluation sample.
as §2, with “four” for “three”, “astringent” for “metallic”, “fava bean protein” for “sucralose”, “granular fava bean protein” for “a 0.007 wt % sucralose aqueous solution”

[6] = Sensory evaluation in soy protein aqueous solution (Experimental Example 13); settings: Table 27
Experimental: as §3, with “27” for “22”, “soy” for “pea”, “protein” for “protein (6 parts by weight) and granulated sugar”, “in” for “in ion exchange”, “(96” for “(90”, “FUJI OIL CO., LTD.” for “Cosucra”
as §2, with “four” for “three”, “astringent” for “metallic”, “soy protein” for “sucralose”, “soy protein” for “0.007 wt % sucralose”

[7] = Sensory evaluation in sodium acetate aqueous solution (Experimental Example 18); settings: Table 33
Experimental: Each compound shown in the following Table 33 was added to an aqueous solution prepared by dissolving sodium acetate (1 part by weight) and acetic acid (0.3 parts by weight) in water (98.7 parts by weight) (hereinafter at times referred to as sodium acetate aqueous solution) so as to achieve the concentration (addition concentration) shown in the following Table 33 to prepare each evaluation sample.
as §2, with “four” for “three”, “astringent” for “metallic”, “sodium acetate” for “sucralose”, “sodium acetate” for “0.007 wt % sucralose”

[8] = Sensory evaluation in stevia aqueous solution (Experimental Example 7); settings: text summary of Table 21
Experimental: Each compound shown in the following Table 21 was added […] to an aqueous solution prepared by dissolving stevia (manufactured by PureCircle) ([…]) in ion exchange water (99.93 parts by weight) (hereinafter at times referred to as stevia aqueous solution) so as to achieve the concentration (addition concentration) shown in the following Table 21 to prepare each evaluation sample.
as §2, with “four” for “three”, “stevia” for “sucralose”, “stevia” for “0.007 wt % sucralose”

[9] = Sensory evaluation in 0.12 wt % aspartame aqueous solution (Experimental Example 12); settings: Table 26
Experimental: Each compound shown in the following Table 26 was added to a 0.12 wt % aspartame aqueous solution (an aqueous solution prepared by dissolving aspartame (0.12 parts by weight) in ion exchange water (99.88 parts by weight)) so as to achieve the concentration (addition concentration) shown in the following Table 26 to prepare each evaluation sample.
as §2, with “aspartame” for “sucralose”, “0.12” for “0.007”

[10] = Sensory evaluation in 0.06 wt % acesulfame potassium aqueous solution (Experimental Example 10); settings: summary of Table 24
Experimental: as §1, with “24” for “25”, “0.06” for “0.007”, “acesulfame potassium” for “sucralose”, “acesulfame potassium (0.06” for “sucralose (0.007”, “(99.94” for “(99.993”
as §2, with “four” for “three”, “(bitter” for “(bitter taste, harsh taste, metallic”, “acesulfame potassium” for “sucralose”, “0.06” for “0.007”

CC1=C(O)C(=O)CC1 [cyclotene]
suppressed: intensity of off-tastes (bitter taste, harsh taste, metallic taste) derived from sucralose [1] | intensity of off-tastes (bitter taste, harsh taste, astringent taste) derived from methyl cellulose [2] | intensity of off-tastes (bitter taste, harsh taste, astringent taste) derived from pea protein [3] | intensity of off-tastes (bitter taste, harsh taste, astringent taste) derived from pea protein [4] | intensity of off-tastes (bitter taste, harsh taste, astringent taste) derived from fava bean protein [5] | intensity of off-tastes (bitter taste, harsh taste, astringent taste) derived from soy protein [6] | intensity of off-tastes (bitter taste, harsh taste, astringent taste) derived from sodium acetate [7] | intensity of off-tastes (bitter taste, harsh taste, metallic taste) derived from stevia [8] | intensity of off-tastes (bitter taste, harsh taste, metallic taste) derived from aspartame [9] | intensity of off-tastes (bitter taste) derived from acesulfame potassium [10]

CC(=O)c1ccco1 [2-acetylfuran]
suppressed: intensity of off-tastes (bitter taste, harsh taste, metallic taste) derived from sucralose [1] | intensity of off-tastes (bitter taste, harsh taste, astringent taste) derived from methyl cellulose [2] | intensity of off-tastes (bitter taste, harsh taste, astringent taste) derived from pea protein [3] | intensity of off-tastes (bitter taste, harsh taste, astringent taste) derived from pea protein [4] | intensity of off-tastes (bitter taste, harsh taste, astringent taste) derived from fava bean protein [5] | intensity of off-tastes (bitter taste, harsh taste, astringent taste) derived from soy protein [6] | intensity of off-tastes (bitter taste, harsh taste, astringent taste) derived from sodium acetate [7] | intensity of off-tastes (bitter taste, harsh taste, metallic taste) derived from stevia [8] | intensity of off-tastes (bitter taste, harsh taste, metallic taste) derived from aspartame [9] | intensity of off-tastes (bitter taste) derived from acesulfame potassium [10]

O=Cc1ccco1 [furfural, Furfural]
suppressed: intensity of off-tastes (bitter taste, harsh taste, metallic taste) derived from sucralose [1] | intensity of off-tastes (bitter taste, harsh taste, astringent taste) derived from methyl cellulose [2] | intensity of off-tastes (bitter taste, harsh taste, astringent taste) derived from pea protein [3] | intensity of off-tastes (bitter taste, harsh taste, astringent taste) derived from pea protein [4] | intensity of off-tastes (bitter taste, harsh taste, astringent taste) derived from fava bean protein [5] | intensity of off-tastes (bitter taste, harsh taste, astringent taste) derived from soy protein [6] | intensity of off-tastes (bitter taste, harsh taste, astringent taste) derived from sodium acetate [7] | intensity of off-tastes (bitter taste, harsh taste, metallic taste) derived from stevia [8] | intensity of off-tastes (bitter taste, harsh taste, metallic taste) derived from aspartame [9] | intensity of off-tastes (bitter taste) derived from acesulfame potassium [10]

CCC(=O)O [propionic acid]
suppressed: intensity of off-tastes (bitter taste, harsh taste, metallic taste) derived from sucralose [1] | intensity of off-tastes (bitter taste, harsh taste, astringent taste) derived from methyl cellulose [2] | intensity of off-tastes (bitter taste, harsh taste, astringent taste) derived from pea protein [3] | intensity of off-tastes (bitter taste, harsh taste, astringent taste) derived from pea protein [4] | intensity of off-tastes (bitter taste, harsh taste, astringent taste) derived from fava bean protein [5] | intensity of off-tastes (bitter taste, harsh taste, astringent taste) derived from soy protein [6] | intensity of off-tastes (bitter taste, harsh taste, astringent taste) derived from sodium acetate [7] | intensity of off-tastes (bitter taste, harsh taste, metallic taste) derived from stevia [8] | intensity of off-tastes (bitter taste, harsh taste, metallic taste) derived from aspartame [9] | intensity of off-tastes (bitter taste) derived from acesulfame potassium [10]

CC1OCCC1=O (stereo not drawn) [2-methyltetrahydrofuran-3-one]
suppressed: intensity of off-tastes (bitter taste, harsh taste, metallic taste) derived from sucralose [1] | intensity of off-tastes (bitter taste, harsh taste, astringent taste) derived from methyl cellulose [2] | intensity of off-tastes (bitter taste, harsh taste, astringent taste) derived from pea protein [3] | intensity of off-tastes (bitter taste, harsh taste, astringent taste) derived from pea protein [4] | intensity of off-tastes (bitter taste, harsh taste, astringent taste) derived from fava bean protein [5] | intensity of off-tastes (bitter taste, harsh taste, astringent taste) derived from soy protein [6] | intensity of off-tastes (bitter taste, harsh taste, astringent taste) derived from sodium acetate [7] | intensity of off-tastes (bitter taste, harsh taste, metallic taste) derived from stevia [8] | intensity of off-tastes (bitter taste, harsh taste, metallic taste) derived from aspartame [9] | intensity of off-tastes (bitter taste) derived from acesulfame potassium [10]

CC(=O)c1ccc(C)o1 [2-acetyl-5-methylfuran]
suppressed: intensity of off-tastes (bitter taste, harsh taste, metallic taste) derived from sucralose [1] | intensity of off-tastes (bitter taste, harsh taste, astringent taste) derived from methyl cellulose [2] | intensity of off-tastes (bitter taste, harsh taste, astringent taste) derived from pea protein [3] | intensity of off-tastes (bitter taste, harsh taste, astringent taste) derived from pea protein [4] | intensity of off-tastes (bitter taste, harsh taste, astringent taste) derived from fava bean protein [5] | intensity of off-tastes (bitter taste, harsh taste, astringent taste) derived from soy protein [6] | intensity of off-tastes (bitter taste, harsh taste, astringent taste) derived from sodium acetate [7] | intensity of off-tastes (bitter taste, harsh taste, metallic taste) derived from stevia [8] | intensity of off-tastes (bitter taste, harsh taste, metallic taste) derived from aspartame [9] | intensity of off-tastes (bitter taste) derived from acesulfame potassium [10]
